Measurements taken from PubChem BioAssay AID1159562 (GlaxoSmithKline (GSK), 2015).
Calls of active or inactive are those of the source. No rule for the calls is given here.

Each compound was assayed on Trypanosoma brucei growth inhibition, luminescence (assay: Trypanosoma brucei growth inhibition, luminescence (AID 1159562);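 also: parasites grew with compound for 24 h before the luminescence read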).

Row | IC50 | SMILES
1 | > 40000 nM (inactive) | COc1ccccc1C=CCN1C[C@H]2CCC[C@@H](C1)C2(O)c1cccnc1 (some centres not stated)
2 | 400 nM | O=c1cc(NCCCNCc2cc(C(F)(F)F)cs2)[nH]c2ccccc12
3 | > 40000 nM (inactive) | Cc1ccc2c(c1)SC(C(=O)Nc1n[nH]c(-c3ccccn3)n1)C2 (configuration not stated)
4 | > 40000 nM (inactive) | O=C(Nc1nc2ccccc2[nH]1)c1ccc2nc[nH]c2c1
5 | > 40000 nM (inactive) | CN(C)c1ncc(-c2cncn2CCOc2ccc(Cl)cc2)cn1
6 | 500 nM | Cc1ccc(S(=O)(=O)Nc2ccc(CN3CCN(C(=O)c4cccc(C)c4)CC3)cc2)cc1
7 | > 40000 nM (inactive) | COc1cccc(-c2cc(C(F)(F)F)nc(-n3ccc([N+](=O)[O-])n3)n2)c1
8 | 630 nM | NC(=O)c1ncccc1Nc1nc(NC2CCC(O)CC2)ncc1Br (configuration not stated)
9 | 13000 nM | Cc1cc(C)n(-c2nc(NC(C)C)nc(NC(C)(C)C)n2)n1
10 | 630 nM | O=C(NCc1ccc(Cl)cc1)C1CN(C(=O)c2ccc(F)cc2)CCS1 (configuration not stated)
11 | 1000 nM | CCCNC(=O)Nc1cccc(-c2nc3ncccc3o2)c1
12 | 16000 nM | CCc1nn(-c2ncc(F)c(NC(C)C)n2)c(N)c1C1CCCCC1
13 | > 40000 nM (inactive) | NC(=O)c1cc(NC(=O)c2ccccc2COc2ccccc2)ccc1Cl
14 | 160 nM | CC1CCCCN1C(=O)NCCc1coc(-c2ccc(F)cc2)n1 (configuration not stated)
15 | 100 nM | CC(C)C[C@H](NC(=O)c1csc(-c2cccs2)n1)C(=O)NC1(C#N)CC1
16 | 40000 nM | O=C(Nc1ncc([N+](=O)[O-])s1)C1CC1
17 | 1600 nM | c1ccc2sc(Nc3nc4ncccc4[nH]3)nc2c1
18 | 63 nM | Cc1cc(Nc2cc(C3CC3)[nH]n2)nc(N2CCC[C@H]2C(N)=O)n1
19 | 1300 nM | O=C(Nc1nc(-c2ccc(F)cc2)cs1)c1ccc([N+](=O)[O-])s1
20 | > 40000 nM (inactive) | O=C(NC1C(=O)N(c2ccccc2)C1c1cccnc1)c1ccc(Cl)s1 (configuration not stated)

Row | IC50 | SMILES
21 | > 40000 nM (inactive) | Cc1ccc(C)c(OC2CCN(C(=O)C(C)n3ccnc3)CC2)c1 (configuration not stated)
22 | 320 nM | O=C(NCC(c1cccs1)N1CCOCC1)c1ccc([N+](=O)[O-])o1 (configuration not stated)
23 | > 40000 nM (inactive) | CC(C)Oc1cccc(N2CCC(C(=O)N3CCCN(C(C)C)CC3)CC2)c1
24 | > 40000 nM (inactive) | O=C(NCCc1cccnc1)c1csc(-c2ccccc2)n1
25 | 40000 nM | C=CCN(Cc1cccs1)C(=O)CSc1nnc(-c2ccc3c(c2)OCO3)o1
26 | > 40000 nM (inactive) | Cn1nc([N+](=O)[O-])nc1N1CCCCC1
27 | > 40000 nM (inactive) | O=C(Cc1ccc2c(c1)CCC2)Nc1n[nH]c(-c2ccccn2)n1
28 | 25000 nM | CNc1cc(Cn2c(C(=O)c3cc(C)cc(Cl)c3)c(C(C)C)c(=O)[nH]c2=O)ccn1
29 | 630 nM | COc1cc(-c2noc(CC#N)n2)ccc1OC(F)F
30 | 1000 nM | CN(Cc1nc2c(C(=O)N3CCN(Cc4ccccc4)CC3)cccc2[nH]1)C1CCCc2cccnc21 (configuration not stated)
31 | 200 nM | NCc1ccc2c(Cl)cc(Cl)c(O)c2n1
32 | 1000 nM | O=C1COC(c2ccccc2)(c2ccccc2)CN1C1CCN(Cc2ccc(-n3ccnc3)cc2)CC1
33 | 20 nM | O=C1OCc2ccc(Nc3nccc(-c4cnn5ncccc45)n3)cc21
34 | > 40000 nM (inactive) | Cc1nc2nc(C)c(Cc3ccc(C(C)C)cc3)c(=O)n2[nH]1
35 | 25000 nM | COc1ccc([N+](=O)[O-])cc1NC(=O)c1cc(Cl)ccc1O
36 | > 40000 nM (inactive) | O=C(CSc1nnc(-c2ccc3c(c2)OCO3)o1)N(Cc1ccco1)CC(F)(F)F
37 | 630 nM | CN(C(=O)Nc1ccc2c(c1)CCN(C1CCC1)CC2)c1ccc(C#N)cc1
38 | 2500 nM | COc1ccc(CNc2cc(C3CC3)nc(-c3nccn3C)n2)cc1
39 | > 40000 nM (inactive) | COc1ccc(Cl)cc1CC(=O)Nc1n[nH]c(-c2ccccn2)n1
40 | > 40000 nM (inactive) | Nc1nccc(-c2csc(Nc3ccc(Cl)cc3)n2)n1

Row | SMILES | IC50
41 | CCN(CC)S(=O)(=O)c1ccc(Cn2nc(C(=O)Nc3ccncn3)c3ccccc32)cc1 | > 40000 nM (inactive)
42 | COc1cc(C2SCC(=O)Nc3c2c(C)nn3-c2nc3ccccc3s2)cc(OC)c1O (configuration not stated) | > 40000 nM (inactive)
